Data taken from ChEMBL document CHEMBL5291721, “A preclinical secondary pharmacology resource illuminates target-adverse drug reaction associations of marketed drugs” (Nat Commun, 2023).

Key:
[1] = target: Delta-type opioid receptor (Homo sapiens, UniProt P41143)
[2] = target: Gamma-aminobutyric acid receptor subunit alpha-1 (Rattus norvegicus, UniProt P62813)
[3] = target: T1, Muscarinic acetylcholine receptor M2 (Homo sapiens, UniProt P08172); type: functional, cell-based
T1 sequence (P08172 whole entry): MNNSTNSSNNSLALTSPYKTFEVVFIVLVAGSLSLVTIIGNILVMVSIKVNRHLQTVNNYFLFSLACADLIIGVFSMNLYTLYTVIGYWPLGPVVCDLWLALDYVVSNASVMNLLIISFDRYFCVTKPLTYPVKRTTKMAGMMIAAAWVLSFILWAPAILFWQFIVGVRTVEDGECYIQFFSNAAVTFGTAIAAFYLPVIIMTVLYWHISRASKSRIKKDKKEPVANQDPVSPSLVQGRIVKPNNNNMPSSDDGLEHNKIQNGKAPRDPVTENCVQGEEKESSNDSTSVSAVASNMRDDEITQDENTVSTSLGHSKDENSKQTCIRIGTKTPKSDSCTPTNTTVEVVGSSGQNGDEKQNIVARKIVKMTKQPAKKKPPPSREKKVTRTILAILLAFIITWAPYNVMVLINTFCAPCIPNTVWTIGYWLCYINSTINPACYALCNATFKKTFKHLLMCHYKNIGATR

Histamine H3 receptor = Histamine H3 receptor (Homo sapiens, UniProt Q9Y5N1)
[4] = target: T2, 5-hydroxytryptamine receptor 1A (Homo sapiens, UniProt P08908); type: functional, cell-based
T2 sequence (P08908 whole entry): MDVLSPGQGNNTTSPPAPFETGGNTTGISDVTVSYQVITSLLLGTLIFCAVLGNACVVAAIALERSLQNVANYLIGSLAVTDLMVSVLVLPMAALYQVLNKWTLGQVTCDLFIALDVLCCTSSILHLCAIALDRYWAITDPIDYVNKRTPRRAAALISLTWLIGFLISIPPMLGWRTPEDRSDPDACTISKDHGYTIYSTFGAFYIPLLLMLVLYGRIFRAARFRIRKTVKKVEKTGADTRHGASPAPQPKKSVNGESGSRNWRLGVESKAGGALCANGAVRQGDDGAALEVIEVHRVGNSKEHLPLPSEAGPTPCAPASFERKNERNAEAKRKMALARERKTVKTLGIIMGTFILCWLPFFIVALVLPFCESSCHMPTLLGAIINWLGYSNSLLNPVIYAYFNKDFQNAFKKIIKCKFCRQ

D(1A) dopamine receptor = D(1A) dopamine receptor (Homo sapiens, UniProt P21728); type: functional, cell-based
[5] = target: 5-hydroxytryptamine receptor 2A (Homo sapiens, UniProt P28223); type: functional, cell-based
[6] = target: T3, Alpha-2C adrenergic receptor (Homo sapiens, UniProt P18825); type: functional
T3 sequence (P18825 whole entry): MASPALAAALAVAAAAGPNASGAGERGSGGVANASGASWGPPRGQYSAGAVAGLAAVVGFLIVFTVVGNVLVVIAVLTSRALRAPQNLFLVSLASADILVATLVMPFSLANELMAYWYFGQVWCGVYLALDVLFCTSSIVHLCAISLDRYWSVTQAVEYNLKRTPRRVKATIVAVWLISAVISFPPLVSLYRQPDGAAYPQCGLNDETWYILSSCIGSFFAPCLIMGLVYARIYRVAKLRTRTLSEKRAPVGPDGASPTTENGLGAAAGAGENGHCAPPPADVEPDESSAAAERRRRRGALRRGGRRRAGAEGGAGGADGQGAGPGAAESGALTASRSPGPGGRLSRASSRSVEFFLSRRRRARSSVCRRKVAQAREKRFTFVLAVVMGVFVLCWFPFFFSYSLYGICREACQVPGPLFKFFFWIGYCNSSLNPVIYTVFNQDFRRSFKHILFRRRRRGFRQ

[7] = target: T4, 5-hydroxytryptamine receptor 3A (Homo sapiens, UniProt P46098); type: functional
T4 sequence (P46098 whole entry): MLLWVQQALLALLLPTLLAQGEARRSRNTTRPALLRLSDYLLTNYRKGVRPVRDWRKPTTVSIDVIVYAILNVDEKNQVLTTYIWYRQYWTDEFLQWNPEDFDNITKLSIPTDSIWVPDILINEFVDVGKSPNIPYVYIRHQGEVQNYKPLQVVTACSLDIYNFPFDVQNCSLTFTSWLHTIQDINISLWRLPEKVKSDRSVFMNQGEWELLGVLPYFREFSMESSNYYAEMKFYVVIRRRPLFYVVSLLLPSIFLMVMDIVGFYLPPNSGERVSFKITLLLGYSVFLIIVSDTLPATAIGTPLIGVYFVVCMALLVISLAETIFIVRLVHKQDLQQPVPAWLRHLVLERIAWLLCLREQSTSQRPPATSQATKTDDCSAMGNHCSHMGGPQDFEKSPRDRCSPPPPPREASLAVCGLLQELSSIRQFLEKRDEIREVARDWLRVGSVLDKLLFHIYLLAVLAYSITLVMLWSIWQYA

Glucocorticoid receptor = target: T5, Glucocorticoid receptor (Homo sapiens, UniProt P04150)
T5 sequence (P04150 whole entry): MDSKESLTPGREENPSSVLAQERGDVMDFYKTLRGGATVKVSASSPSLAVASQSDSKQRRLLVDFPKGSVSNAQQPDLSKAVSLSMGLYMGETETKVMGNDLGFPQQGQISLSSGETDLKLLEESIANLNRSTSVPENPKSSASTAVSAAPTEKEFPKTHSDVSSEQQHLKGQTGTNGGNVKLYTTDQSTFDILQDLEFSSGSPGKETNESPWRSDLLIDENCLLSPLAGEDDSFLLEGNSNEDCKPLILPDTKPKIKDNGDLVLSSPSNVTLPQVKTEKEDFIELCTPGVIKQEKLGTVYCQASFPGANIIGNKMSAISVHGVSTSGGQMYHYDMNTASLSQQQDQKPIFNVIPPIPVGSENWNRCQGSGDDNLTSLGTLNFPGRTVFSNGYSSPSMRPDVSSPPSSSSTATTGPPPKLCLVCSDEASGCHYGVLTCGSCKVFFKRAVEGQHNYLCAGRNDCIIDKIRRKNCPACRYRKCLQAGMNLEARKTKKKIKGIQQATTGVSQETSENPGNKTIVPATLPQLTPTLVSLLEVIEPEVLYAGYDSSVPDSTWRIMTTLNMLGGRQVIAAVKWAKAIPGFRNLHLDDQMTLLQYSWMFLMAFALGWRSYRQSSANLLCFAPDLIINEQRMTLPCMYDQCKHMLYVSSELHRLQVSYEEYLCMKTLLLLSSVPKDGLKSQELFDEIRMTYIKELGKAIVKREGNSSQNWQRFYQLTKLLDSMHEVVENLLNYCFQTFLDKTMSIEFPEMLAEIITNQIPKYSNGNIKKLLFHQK
Also: assay procedure not described here.

Chain of Histamine H3 receptor (Q9Y5N1 whole entry): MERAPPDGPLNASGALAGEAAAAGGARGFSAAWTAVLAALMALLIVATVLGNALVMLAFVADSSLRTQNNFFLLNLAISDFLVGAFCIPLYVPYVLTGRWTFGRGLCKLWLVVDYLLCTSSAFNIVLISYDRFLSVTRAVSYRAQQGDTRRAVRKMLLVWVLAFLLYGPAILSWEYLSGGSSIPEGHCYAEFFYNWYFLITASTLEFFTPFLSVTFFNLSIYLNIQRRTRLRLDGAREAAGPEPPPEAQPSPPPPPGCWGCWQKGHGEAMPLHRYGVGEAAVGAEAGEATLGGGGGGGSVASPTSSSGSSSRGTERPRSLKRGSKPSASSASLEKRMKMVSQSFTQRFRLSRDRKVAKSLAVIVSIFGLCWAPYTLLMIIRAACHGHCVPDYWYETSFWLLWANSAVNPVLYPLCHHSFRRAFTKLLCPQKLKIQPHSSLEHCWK
Chain of D(1A) dopamine receptor (P21728 whole entry): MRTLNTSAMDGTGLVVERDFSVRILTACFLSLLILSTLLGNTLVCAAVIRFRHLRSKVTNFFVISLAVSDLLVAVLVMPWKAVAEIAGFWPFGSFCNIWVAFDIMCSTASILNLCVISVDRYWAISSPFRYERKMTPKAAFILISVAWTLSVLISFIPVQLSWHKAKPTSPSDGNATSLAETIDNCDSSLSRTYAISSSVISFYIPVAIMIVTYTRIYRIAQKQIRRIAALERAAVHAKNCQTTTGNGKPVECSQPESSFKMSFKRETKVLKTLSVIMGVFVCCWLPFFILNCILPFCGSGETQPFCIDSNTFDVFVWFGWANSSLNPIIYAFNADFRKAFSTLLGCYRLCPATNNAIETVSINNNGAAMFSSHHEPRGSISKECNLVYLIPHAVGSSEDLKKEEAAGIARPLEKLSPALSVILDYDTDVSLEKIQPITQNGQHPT
Chain of Delta-type opioid receptor (P41143 whole entry): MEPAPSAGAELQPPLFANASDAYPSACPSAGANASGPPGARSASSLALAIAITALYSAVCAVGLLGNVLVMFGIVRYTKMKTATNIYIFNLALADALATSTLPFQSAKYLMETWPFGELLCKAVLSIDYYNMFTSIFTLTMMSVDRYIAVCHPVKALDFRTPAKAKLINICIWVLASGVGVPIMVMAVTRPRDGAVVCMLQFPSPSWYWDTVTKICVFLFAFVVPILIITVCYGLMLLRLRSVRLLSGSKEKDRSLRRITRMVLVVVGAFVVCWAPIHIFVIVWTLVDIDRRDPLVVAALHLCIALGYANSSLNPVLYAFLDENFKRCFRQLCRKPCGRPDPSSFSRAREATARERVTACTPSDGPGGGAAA
Chain of Gamma-aminobutyric acid receptor subunit alpha-1 (P62813 whole entry): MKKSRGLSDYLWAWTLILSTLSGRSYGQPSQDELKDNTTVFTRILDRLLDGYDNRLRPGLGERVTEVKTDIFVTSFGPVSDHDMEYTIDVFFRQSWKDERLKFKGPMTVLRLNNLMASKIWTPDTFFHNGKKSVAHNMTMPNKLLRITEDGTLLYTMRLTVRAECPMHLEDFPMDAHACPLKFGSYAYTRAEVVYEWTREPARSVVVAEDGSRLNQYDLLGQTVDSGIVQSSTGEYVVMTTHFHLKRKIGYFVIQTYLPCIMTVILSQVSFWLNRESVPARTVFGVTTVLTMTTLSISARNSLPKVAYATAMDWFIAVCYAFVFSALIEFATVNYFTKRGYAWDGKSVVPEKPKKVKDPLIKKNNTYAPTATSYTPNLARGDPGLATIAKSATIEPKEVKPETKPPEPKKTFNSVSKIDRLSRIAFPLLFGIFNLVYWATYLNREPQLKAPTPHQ
Chain of 5-hydroxytryptamine receptor 2A (P28223 whole entry): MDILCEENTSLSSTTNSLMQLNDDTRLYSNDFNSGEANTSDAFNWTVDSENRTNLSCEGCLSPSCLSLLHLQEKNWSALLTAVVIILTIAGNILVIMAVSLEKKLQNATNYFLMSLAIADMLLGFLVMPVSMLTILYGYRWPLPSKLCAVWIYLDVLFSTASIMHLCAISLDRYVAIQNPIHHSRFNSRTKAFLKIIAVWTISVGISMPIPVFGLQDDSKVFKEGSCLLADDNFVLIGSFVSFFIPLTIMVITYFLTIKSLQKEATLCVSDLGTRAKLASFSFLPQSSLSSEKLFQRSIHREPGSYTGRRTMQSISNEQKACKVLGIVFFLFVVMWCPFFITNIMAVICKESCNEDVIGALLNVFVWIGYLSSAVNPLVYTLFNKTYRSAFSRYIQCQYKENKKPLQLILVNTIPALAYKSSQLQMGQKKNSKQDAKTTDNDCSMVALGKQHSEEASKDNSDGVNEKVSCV

Compound | AC50 [1] [µM] | AC50 [2] [µM] | AC50 [3] [µM] | AC50 (Histamine H3 receptor) [µM] | AC50 [4] [µM] | AC50 (D(1A) dopamine receptor) [µM] | AC50 [5] [µM] | AC50 [6] [µM] | AC50 [7] [µM] | AC50 (Glucocorticoid receptor) [µM]
N#Cc1ccccc1-c1cc(-c2ccccn2)cn(-c2ccccc2)c1=O | > 30 | > 30 | > 30 | > 30 | > 30 | > 30 | > 30 | > 30 | > 30 | > 30
N=C(N)NCCCCCCC(=O)NC(O)C(=O)NCCCCNCCCN (stereo unspecified) | > 30 | > 30 | > 30 | > 30 | > 30 | > 30 | > 30 | > 30 | > 30 | > 30
O=C(CCCN1CCC(n2c(O)nc3ccccc32)CC1)c1ccc(F)cc1 [BENPERIDOL] | > 30 | > 30 | 2.64 | 18 | 0.166 | > 30 | > 30 | 1.9 | > 30 | > 30
CCN(CC)CCOC(=O)c1ccc(N)cc1Cl [CHLOROPROCAINE] | > 30 | – | 29 | 4 | > 30 | > 30 | > 30 | > 30 | 11 | > 30
COCCOC(=O)C1=C(C)NC(C)=C(C(=O)OC/C=C/c2ccccc2)C1c1cccc([N+](=O)[O-])c1 (stereo unspecified) [CILNIDIPINE] | > 30 | > 30 | > 30 | > 30 | > 30 | > 30 | > 30 | > 30 | > 30 | 6.5
N[C@H](Cc1cc(I)c(Oc2cc(I)c(O)c(I)c2)c(I)c1)C(=O)O [DEXTROTHYROXINE] | > 30 | > 10 | > 10 | > 10 | 8.2 | > 10 | > 30 | > 10 | > 30 | 25
COC(=O)N[C@@H](C)CNc1nccc(-c2cn(C(C)C)nc2-c2cc(Cl)cc(NS(C)(=O)=O)c2F)n1 [ENCORAFENIB] | > 30 | > 30 | > 30 | > 30 | > 30 | > 30 | > 30 | > 30 | > 30 | > 30
Nc1nc(F)nc2c1ncn2[C@@H]1O[C@H](COP(=O)(O)O)[C@@H](O)[C@@H]1O [FLUDARABINE PHOSPHATE] | > 30 | > 30 | > 30 | > 30 | > 30 | > 30 | > 30 | > 30 | > 30 | > 30
O=C(O)c1ccccc1Nc1cccc(C(F)(F)F)c1 [FLUFENAMIC ACID] | > 30 | > 10 | > 10 | > 10 | 15 | > 10 | > 30 | > 10 | > 30 | > 30
O=C(O)c1ccccc1OP(=O)(O)O [FOSFOSAL] | > 30 | – | > 30 | > 30 | > 30 | > 30 | > 30 | > 30 | > 30 | > 30
C#C[C@]1(O)CC[C@H]2[C@@H]3CCC4=CC(=O)CCC4=C3C=C[C@@]21CC [GESTRINONE] | > 30 | > 30 | > 30 | > 30 | > 30 | > 30 | > 30 | > 30 | > 30 | 0.01
CCCCCCOC(=O)CCC(=O)CN [HEXAMINOLEVULINATE] | > 30 | > 30 | > 30 | > 30 | > 30 | > 30 | > 30 | > 30 | > 30 | > 30
CCCC[C@H](C)C[C@H](O)/C=C/[C@H]1[C@H](O)CC(=O)[C@@H]1CCCC/C=C/C(=O)O [LIMAPROST] | > 30 | > 30 | > 30 | > 30 | > 30 | > 30 | > 30 | > 30 | > 30 | > 30
Cc1ccc(NC(=O)C2(c3ccc4c(c3)OC(F)(F)O4)CC2)nc1-c1cccc(C(=O)O)c1 [LUMACAFTOR] | > 30 | > 30 | > 30 | > 30 | > 30 | > 30 | > 30 | > 30 | > 30 | > 30
CC(=O)Nc1c(I)c(C(=O)N[C@H]2C(O)O[C@H](CO)[C@@H](O)[C@@H]2O)c(I)c(N(C)C(C)=O)c1I (stereo partly specified) [METRIZAMIDE] | > 30 | > 30 | > 10 | – | > 10 | > 10 | > 10 | > 10 | > 30 | > 10
CC(=O)O[C@H]1C[C@@H]2CC[C@@H]3[C@H](CC[C@@]4(C)[C@H]3C[C@H]([N+]3(C)CCCCC3)[C@@H]4OC(C)=O)[C@@]2(C)C[C@@H]1[N+]1(C)CCCCC1 [PANCURONIUM] | > 30 | > 10 | > 10 | – | > 10 | > 10 | > 10 | > 10 | > 30 | > 10
